# Measured values published in patent US9113629B2, “4-amino-6-(4-substituted-phenyl)-picolinates and 6-amino-2-(4-substituted-phenyl)-pyrimidine-4-carboxylates and their use as herbicides” (DOW AGROSCIENCES LLC, priority 2013, dated 2015).
# Like-named read-outs stand apart in the source and are kept apart here.
# Assays:
# [1] = test system: Key Broadleaf Weed and Crop Species; test: Post-emergent Test II herbicidal activity (Table 5); assay type: in vivo; details: post-emergence, 336 h, 14 days after application; for pest or weed control at 70 g/ha: application rate 70 g ai/ha; for pest or weed control at 140 g/ha: application rate 140 g ai/ha
# Summary of the method: (§1)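 Scoring: visual, 0–100% injury at 14 d versus untreated. Treatment: overhead track spray, 187 L/ha, onto plants at the first–second true leaf stage. Growth: greenhouse, ~15 h light, 23–29 °C day, 22–28 °C night.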
# [2] = test system: Key Grass and Sedge Weeds as well as Grass Crops; test: Post-emergent Test II herbicidal activity (Table 6); assay type: in vivo; details: post-emergence, 336 h; for pest or weed control at 70 g/ha: 70 g ai/ha; for pest or weed control at 140 g/ha: 140 g ai/ha
# Summary of the method: as §1
# [3] = ABUTH: velvetleaf (Abutilon theophrasti), read-out: Visual Growth Reduction (%) 14 Days After Application, ABUTH
# [4] = AMARE: redroot pigweed (Amaranthus retroflexus), read-out: Visual Growth Reduction (%) 14 Days After Application, AMARE
# [5] = BRSNN: oilseed-rape, canola (Brassica napus), read-out: Visual Growth Reduction (%) 14 Days After Application, BRSNN
# [6] = CHEAL: lambsquarters (Chenopodium album), read-out: Visual Growth Reduction (%) 14 Days After Application, CHEAL
# [7] = EPHHL: wild poinsettia (Euphorbia heterophylla), read-out: Visual Growth Reduction (%) 14 Days After Application, EPHHL
# [8] = HELAN: sunflower (Helianthus annuus), read-out: Visual Growth Reduction (%) 14 Days After Application, HELAN
# [9] = VIOTR: wild pansy (Viola tricolor), read-out: Visual Growth Reduction (%) 14 Days After Application, VIOTR
# [10] = CYPES: yellow nutsedge (Cyperus esculentus), read-out: Visual Growth Reduction (%) 14 Days After Application, CYPES
# [11] = DIGSA: crabgrass (Digitaria sanguinalis), read-out: Visual Growth Reduction (%) 14 Days After Application, DIGSA
# [12] = ECHCG: barnyardgrass (Echinochloa crus-galli), read-out: Visual Growth Reduction (%) 14 Days After Application, ECHCG
# [13] = ORYSA: rice (Oryza sativa), crop, read-out: Visual Growth Reduction (%) 14 Days After Application, ORYSA
# [14] = SETFA: giant foxtail (Setaria faberi), read-out: Visual Growth Reduction (%) 14 Days After Application, SETFA
# [15] = SORVU: grain sorghum (Sorghum vulgare), read-out: Visual Growth Reduction (%) 14 Days After Application, SORVU
# [16] = TRZSS (wheat, Triticum aestivum), crop, read-out: Visual Growth Reduction (%) 14 Days After Application, TRZSS
# [17] = ZEAMX: maize, corn (Zea mays), crop, read-out: Visual Growth Reduction (%) 14 Days After Application, ZEAMX
SMILES,"pest or weed control at 70 g/ha [1, 3] [%]","pest or weed control at 140 g/ha [1, 3] [%]","pest or weed control at 70 g/ha [1, 4] [%]","pest or weed control at 140 g/ha [1, 4] [%]","pest or weed control at 70 g/ha [1, 5] [%]","pest or weed control at 140 g/ha [1, 5] [%]","pest or weed control at 70 g/ha [1, 6] [%]","pest or weed control at 140 g/ha [1, 6] [%]","pest or weed control at 70 g/ha [1, 8] [%]","pest or weed control at 140 g/ha [1, 8] [%]","pest or weed control at 70 g/ha [1, 9] [%]","pest or weed control at 140 g/ha [1, 9] [%]","pest or weed control at 70 g/ha [2, 10] [%]","pest or weed control at 140 g/ha [2, 10] [%]","pest or weed control at 70 g/ha [2, 11] [%]","pest or weed control at 140 g/ha [2, 11] [%]","pest or weed control at 70 g/ha [2, 12] [%]","pest or weed control at 140 g/ha [2, 12] [%]","pest or weed control at 70 g/ha [2, 13] [%]","pest or weed control at 140 g/ha [2, 13] [%]",also measured
COC(=O)c1nc(-c2ccc(Cl)c(F)c2)c(F)c(N)c1Cl [Compound 216],95 to 100,95 to 100,95 to 100,95 to 100,75 to 84,85 to 94,95 to 100,95 to 100,95 to 100,95 to 100,85 to 94,95 to 100,85 to 94,95 to 100,30 to 44,75 to 84,95 to 100,95 to 100,0 to 29,0 to 29,"pest or weed control at 70 g/ha [1, 7]: 95 to 100%; pest or weed control at 140 g/ha [1, 7]: 95 to 100%; pest or weed control at 70 g/ha [2, 14]: 30 to 44%; pest or weed control at 140 g/ha [2, 14]: 45 to 59%; pest or weed control at 70 g/ha [2, 15]: 85 to 94%; pest or weed control at 140 g/ha [2, 15]: 85 to 94%; pest or weed control at 70 g/ha [2, 16]: 0 to 29%; pest or weed control at 140 g/ha [2, 16]: 30 to 44%; pest or weed control at 70 g/ha [2, 17]: 85 to 94%; pest or weed control at 140 g/ha [2, 17]: 85 to 94%; melting point: 111 to 114 °C"
COC(=O)c1nc(-c2ccc(Br)c(F)c2)c(F)c(N)c1Cl [Compound 49],95 to 100,95 to 100,95 to 100,95 to 100,95 to 100,95 to 100,95 to 100,95 to 100,95 to 100,95 to 100,95 to 100,95 to 100,95 to 100,85 to 94,60 to 74,75 to 84,85 to 94,95 to 100,0 to 29,0 to 29,"pest or weed control at 70 g/ha [2, 14]: 60 to 74%; pest or weed control at 140 g/ha [2, 14]: 95 to 100%; pest or weed control at 70 g/ha [2, 15]: 95 to 100%; pest or weed control at 140 g/ha [2, 15]: 95 to 100%; pest or weed control at 70 g/ha [2, 16]: 45 to 59%; pest or weed control at 140 g/ha [2, 16]: 60 to 74%; pest or weed control at 70 g/ha [2, 17]: 95 to 100%; pest or weed control at 140 g/ha [2, 17]: 95 to 100%"
Nc1c(F)c(-c2ccccc2)nc(C(=O)O)c1Cl [Compound 180],85 to 94,95 to 100,45 to 59,75 to 84,85 to 94,95 to 100,95 to 100,95 to 100,85 to 94,85 to 94,0 to 29,0 to 29,30 to 44,45 to 59,0 to 29,0 to 29,0 to 29,0 to 29,0 to 29,0 to 29,"pest or weed control at 70 g/ha [1, 7]: 60 to 74%; pest or weed control at 140 g/ha [1, 7]: 75 to 84%; pest or weed control at 70 g/ha [2, 14]: 0 to 29%; pest or weed control at 140 g/ha [2, 14]: 0 to 29%; pest or weed control at 70 g/ha [2, 15]: 0 to 29%; pest or weed control at 140 g/ha [2, 15]: 30 to 44%; pest or weed control at 70 g/ha [2, 16]: 0 to 29%; pest or weed control at 140 g/ha [2, 16]: 0 to 29%; pest or weed control at 70 g/ha [2, 17]: 0 to 29%; pest or weed control at 140 g/ha [2, 17]: 0 to 29%"
